This passage reports MIC results from patent publication EP0554004A2, “Cephem compounds and antibacterial agents” (KATAYAMA SEIYAKUSYO CO. Ltd., priority 1992, dated 1993).

Test in all cases: MIC against standard strains (Test Example 3)
Holding throughout (format): cell-based

The test system of experiment [1] is C. freundii ATCC8090. The note with it: Citrobacter freundii; C. freundii ATCC8090 (Test Example 3); read-out: MIC. The method, boiled down:
(§1)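 Each agent was incorporated into Mueller-Hinton agar, then seeded with 1 x 10^6 CFU/ml of bacteria from overnight broth culture. Plates stood overnight at 37°C before the lowest growth-inhibiting concentration was recorded as MIC.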

The test system of experiment [2] is P. aeruginosa NCTC10490. The note with it: Pseudomonas aeruginosa; P. aeruginosa NCTC10490 (Test Example 3); read-out: MIC. The procedure, abridged:
as §1

In experiment [3] the test system is S. aureus 209p JC-1. The note with it: Staphylococcus aureus; S. aureus 209p JC-1 (Test Example 3); read-out: MIC. The method, boiled down:
as §1

For experiment [4], the system named is S. marcescens IAM1184. Conditions: Serratia marcescens; S. marcescens IAM1184 (Test Example 3); read-out: MIC. The procedure, abridged: as §1
Experiment [5] concerns E. coli CSH2 (RK1). Conditions: Escherichia coli. The procedure, abridged: (§2)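 Strains are grown overnight at 37°C in Mueller-Hinton broth and adjusted to 1 x 10^6 CFU/ml. Suspensions are then inoculated onto Mueller-Hinton agar plates each carrying one test agent, incubated overnight at 37°C, and scored for growth to give the MIC.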
Experiment [6] relates to E. coli CSH2 (RE45). The note with it: Escherichia coli. The procedure, abridged: as §2
The subject of experiment [7] is M. luteus ATCC 9341. Conditions: Micrococcus luteus, ATCC9341; M. luteus ATCC 9341 (Test Example 3); read-out: MIC. The method, boiled down: as §1
Experiment [8] deals with E. cloacae ATCC13407. The note with it: Enterobacter cloacae; E. cloacae ATCC13407 (Test Example 3); read-out: MIC. The method, boiled down:
as §1

Experiment [9] relates to K. pneumoniae No. 42. Conditions: Klebsiella pneumoniae; K. pneumoniae No. 42 (Test Example 3); read-out: MIC. The method, boiled down:
as §1

The test system of experiment [10] is S. epidemidis IAM1296. Conditions: S. epidemidis IAM1296 (Test Example 3); read-out: MIC. The procedure, abridged:
as §1

Experiment [11] has as its system S. aureus 195. Conditions: Staphylococcus aureus; S. aureus 195 (MRSA) (Test Example 3); read-out: MIC. The method, boiled down: as §1
For experiment [12], the system named is P. mirabilis IFO3849. The note with it: Proteus mirabilis; P. mirabilis IFO3849 (Test Example 3); read-out: MIC. The method, boiled down: as §1

Molecules are shown by their SMILES. Values after ≈ are worked out from the molar mass of the structure shown. Bounds are passed on as bounds.

The MIC is the least concentration at which growth counts as inhibited. Take `CO[C@@]1(NC(=O)CSC(F)F)C(=O)N2C(C(=O)O)=C(CSc3nnnn3CCO)CO[C@@H]21` [FMOX, flomoxef, reference compound]: the MIC in [1] was 0.39 µg/mL (≈ 0.786 µM); in [2], over 100 µg/mL; in experiment [3] it was 0.39 µg/mL (≈ 0.786 µM); in experiment [4], 0.2 µg/mL (≈ 0.403 µM); in experiment [5], 0.05 µg/mL (≈ 0.101 µM); in experiment [6], 0.05 µg/mL (≈ 0.101 µM). Further, the MIC in experiment [7] stood at 0.05 µg/mL (≈ 0.101 µM); in [8], 25 µg/mL (≈ 50.4 µM); in [9] it was 0.05 µg/mL (≈ 0.101 µM); in experiment [10], 0.2 µg/mL (≈ 0.403 µM); in experiment [11], 3.13 µg/mL (≈ 6.3 µM); in experiment [12], 0.2 µg/mL (≈ 0.403 µM).
